In brackets after ≈: the same amount, converted by molar mass. Several values for one entry are separate records, joined by “and”; a condition that tells them apart may be missing. Identical values can stand only once. Like-named read-outs stand apart in the source and are kept apart here. *1 amine or outer side, *2 acyl side, *3 side chain or, on linkers, in order; H or OH if unused. Where a SMILES comes first, the peptide text is derived from it. Bridges are numbered along the chain shown (N, C = ends). [ ]: non-standard residue; d: D form. The star is where a group is joined. hTyr(3S-OH,4S-OH,3'-OSO3H) = N[C@H](C(=O)O)[C@H](O)[C@@H](O)c1ccc(O)c(OS(=O)(=O)O)c1; Orn(4R-OH,5R-OH) = O=C([C@H](C[C@@H](O)[C@@H](O)N[*:3])N[*:1])[*:2]; Pro(3S-OH,4S-Me) = C[C@H]1CN[C@H](C(=O)O)[C@H]1O; X1 = CCCCCOc1ccc(-c2cc(-c3ccc(C(=O)*)cc3)no2)cc1; Gln(3R-OH) = NC(=O)C[C@@H](O)[C@H](N)C(=O)O; Hyp = O=C(O)[C@@H]1C[C@@H](O)CN1
Columns and labels:
Candida spp. [1] = assay: Broth microdilution MIC, yeast (Example 13), group statement and QC; type: cell-based; conditions: C. parapsilosis ATCC 22019, comparators, single value
Candida krusei [2] = assay: Broth microdilution MIC, yeast (Example 13); type: cell-based; conditions: C. krusei ATCC 6258 (QC, Table 110), comparators, single value
Aspergillus spp. = assay: Broth microdilution MIC/MEC, mold (Example 13); type: cell-based; conditions: MEC
E. coli ATCC 25922 = assay: Broth microdilution MIC, QC organism (Example 13, Table 110); type: cell-based, Escherichia coli
From the text: (§1) MECs were only reported where observed.

S. aureus ATCC 29213 [3] = assay: as above; type: cell-based, Staphylococcus aureus
From the text: as §1

Candida spp. [4] = conditions: C. parapsilosis ATCC 22019, CLSI established QC range, cited from earlier work
Candida krusei [5] = conditions: C. krusei ATCC 6258, CLSI established QC range, cited from earlier work
P. aeruginosa [6] = assay: Checkerboard FIC assay, BisEDT with CF agents (Example 10); type: cell-based, Pseudomonas aeruginosa; conditions: for MIC: agent alone, as observed during FIC testing
[7] = system: Burkholderia cepacia complex; assay: as above; type: cell-based, Burkholderia spp.; conditions: for MIC: agent alone, as observed during FIC testing
[8] = system: Pseudomonas aeruginosa strain PA01; assay: Bacterial killing curves with and without 10% CF patient sputum
[9] = Aerosol particle size distribution of nebulized suspensions (cascade impactor / APS); conditions: exposure aerosols of the rat efficacy study, In-Tox Mercer Impactor
S. aureus ATCC 29213 [10] = conditions: control strain ATCC 29213 S. aureus; per CLSI M100-S24 or provided by Microbion; cited from earlier work
P. aeruginosa [11] = conditions: P. aeruginosa isolate 103, CLSI QC range in parenthesis, cited from earlier work
P. aeruginosa [12] = assay: Broth microdilution MIC (Example 10)
[13] = system: Burkholderia cepacia complex; assay: Broth microdilution MIC (Example 10); conditions: initial MIC testing
[14] = A. flavus ATCC 204304 (QC, Table 110)
[15] = A. fumigatus ATCC MYA-3626 (QC, Table 110)

Compound: CCCCCOc1ccc(-c2cc(-c3ccc(C(=O)N[C@H]4C[C@@H](O)[C@@H](O)NC(=O)[C@@H]5[C@@H](O)[C@@H](C)CN5C(=O)[C@H]([C@H](O)CC(N)=O)NC(=O)[C@H]([C@H](O)[C@@H](O)c5ccc(O)c(OS(=O)(=O)O)c5)NC(=O)[C@@H]5C[C@@H](O)CN5C(=O)[C@H]([C@@H](C)O)NC4=O)cc3)no2)cc1 [Micafungin] (X1-[Orn(4R-OH,5R-OH)]T[Hyp][hTyr(3S-OH,4S-OH,3'-OSO3H)][Gln(3R-OH)][Pro(3S-OH,4S-Me)]; lactam 1-C)
- MIC 24 hr (Candida spp. [1]): 0.5 µg/mL (≈ 0.394 µM)
- MIC 48 hr (Candida spp. [1]): 2 µg/mL (≈ 1.57 µM)
- MIC 24 hr (Candida krusei [2]): 0.5 µg/mL (≈ 0.394 µM)
- MIC 48 hr (Candida krusei [2]): 0.5 µg/mL (≈ 0.394 µM)
- MIC 24 hr (MEC) (Aspergillus spp.; [14]): 0.06
- MIC 48 hr (MEC) (Aspergillus spp.; [14]): 0.008
- MIC 24 hr (MEC) (Aspergillus spp.; [15]): 0.03
- MIC 48 hr (MEC) (Aspergillus spp.; [15]): 0.008
- MIC 24 hr (E. coli ATCC 25922): > 64 µg/mL
- MIC 24 hr (S. aureus ATCC 29213 [3]): > 64 µg/mL
- QC Range 24 hr (Candida spp. [4]): 0.5-2
- QC Range 48 hr (Candida spp. [4]): 0.5-4
- QC Range 24 hr (Candida krusei [5]): 0.12-0.5
- QC Range 48 hr (Candida krusei [5]): 0.12-0.5

Compound: CC[C@H](C)C[C@H](C)CCCCCCCCC(=O)N[C@H]1C[C@@H](O)[C@@H](NCCN)NC(=O)[C@@H]2[C@@H](O)CCN2C(=O)[C@H]([C@H](O)CCN)NC(=O)[C@H]([C@H](O)[C@@H](O)c2ccc(O)cc2)NC(=O)[C@@H]2C[C@@H](O)CN2C(=O)[C@H]([C@@H](C)O)NC1=O [Caspofungin]
- MIC 24 hr (Candida spp. [1]): 0.25 µg/mL (≈ 0.229 µM)
- MIC 48 hr (Candida spp. [1]): 0.5 µg/mL (≈ 0.457 µM)
- MIC 24 hr (Candida krusei [2]): 0.25 µg/mL (≈ 0.229 µM)
- MIC 48 hr (Candida krusei [2]): 0.25 µg/mL (≈ 0.229 µM)
- MIC 24 hr (MEC) (Aspergillus spp.; [14]): 0.12
- MIC 24 hr (E. coli ATCC 25922): > 64 µg/mL
- MIC 24 hr (S. aureus ATCC 29213 [3]): > 64 µg/mL
- QC Range 24 hr (Candida spp. [4]): 0.25-1
- QC Range 48 hr (Candida spp. [4]): 0.5-4
- QC Range 24 hr (Candida krusei [5]): 0.12-1
- QC Range 48 hr (Candida krusei [5]): 0.25-2

Compound: NC[C@H]1O[C@H](O[C@H]2[C@H](O)[C@@H](O[C@H]3O[C@H](CO)[C@@H](O)[C@H](N)[C@H]3O)[C@H](N)C[C@@H]2N)[C@H](N)C[C@@H]1O [Tobramycin, reference compound]
- FICB (P. aeruginosa [6]; P. aeruginosa 6322, FIC of Tobramycin in combination with BisEDT, panel rows C-G): 1
- MICB (P. aeruginosa [6]; P. aeruginosa 6322, MIC of Tobramycin in combination with BisEDT, panel rows C-G): 128 µg/mL
- FICB (P. aeruginosa [6]; P. aeruginosa 6977, Tobramycin FIC in combination with BisEDT, per checkerboard row): 2
- MICB (P. aeruginosa [6]; P. aeruginosa 6977, Tobramycin MIC in combination with BisEDT, per checkerboard row): 256 µg/mL
- FICB (P. aeruginosa [6]; P. aeruginosa 7745, Tobramycin FIC in combination with BisEDT, per checkerboard row): 1
- MICB (P. aeruginosa [6]; P. aeruginosa 7745, Tobramycin MIC in combination with BisEDT, per checkerboard row): 0.5 µg/mL
- FICB (P. aeruginosa [6]; P. aeruginosa 9108, Tobramycin FIC in combination with BisEDT, per checkerboard row): 1
- MICB (P. aeruginosa [6]; P. aeruginosa 9108, Tobramycin MIC in combination with BisEDT, per checkerboard row): 0.5 µg/mL
- FICB ([7]; B. cenocepacia 548, FIC of Tobramycin in combination with BisEDT): 0.25
- FICB ([7]; B. cenocepacia 813, FIC of Tobramycin in combination with BisEDT): 1
- FICB ([7]; B. cepacia 546, Tobramycin FIC in combination with BisEDT, per checkerboard row): 0.5
- MICB ([7]; B. cepacia 546, Tobramycin MIC in combination with BisEDT, per checkerboard row): 16 µg/mL
- FICB ([7]; B. cepacia 1793, Tobramycin FIC in combination with BisEDT, per checkerboard row): 0.5 and 1
- MICB ([7]; B. cepacia 1793, Tobramycin MIC in combination with BisEDT, per checkerboard row): 8 µg/mL and 16 µg/mL
- FICB ([7]; B. multivorans 1795, FIC of Tobramycin in combination with BisEDT): 1
- MICB ([7]; B. multivorans 1795, MIC of Tobramycin in combination with BisEDT): >256 µg/mL
- CFU higher in cultures with sputum than without ([8]; PA01, 1 μg/mL, 10% CF sputum, most time points): 0.5-1 log CFU/mL
- effect of CF patient sputum on bactericidal activity ([8]; PA01, 10% CF patient sputum): partially inhibits
- MMAD [9]: 2.81 μm

Compound: CC[C@H]1OC(=O)[C@H](C)[C@@H](O[C@H]2C[C@@](C)(OC)[C@@H](O)[C@H](C)O2)[C@H](C)[C@@H](O[C@@H]2O[C@H](C)C[C@H](N(C)C)[C@H]2O)[C@](C)(OC)C[C@@H](C)C(=O)[C@H](C)[C@@H](O)[C@]1(C)O [Clarithromycin]
- Expected MIC: acceptable range (S. aureus ATCC 29213 [10]): 0.12 to 0.5 µg/mL
- Expected MIC: goal (S. aureus ATCC 29213 [10]): 0.25 µg/mL

Compound: NC[C@H]1O[C@H](O[C@H]2[C@H](O)[C@@H](O[C@H]3O[C@H](CO)[C@@H](O)[C@H](N)[C@H]3O)[C@H](N)C[C@@H]2N)[C@H](N)C[C@@H]1O [TOB]
- MIC (P. aeruginosa [6]; P. aeruginosa isolate 6322): 128 µg/mL
- MIC (P. aeruginosa [6]; P. aeruginosa isolate 6977): 128 µg/mL
- MIC (P. aeruginosa [6]; P. aeruginosa isolate 7745): 0.5 µg/mL
- MIC (P. aeruginosa [6]; P. aeruginosa isolate 8798): 16 µg/mL
- MIC (P. aeruginosa [6]; P. aeruginosa isolate 9108): 0.5 µg/mL
- MIC ([7]; B. cenocepacia isolate 0548): 32 µg/mL
- MIC ([7]; B. cenocepacia isolate 0813): 256 µg/mL
- MIC ([7]; B. cepacia isolate 1793): 16 µg/mL
- MIC, CLSI QC range (P. aeruginosa [11]; Table 24): (0.25-1) μg/mL
- MIC, CLSI QC range (P. aeruginosa [11]; Table 26): (0.25-1) μg/mL
- MIC (P. aeruginosa [12]; P. aeruginosa isolate 103 (ATCC 25922), QC strain, initial MIC testing): 1 µg/mL (≈ 2.14 µM)
- MIC (P. aeruginosa [12]; P. aeruginosa isolate 103 (ATCC 25922), during FIC testing, each agent tested alone for QC, one replicate): 1 µg/mL
- MIC (P. aeruginosa [12]; P. aeruginosa isolate 1497 (TOB-R, AMK-R, CIP-I, AZT-R, COL-R), initial MIC testing): 16 µg/mL (≈ 34.2 µM)
- MIC (P. aeruginosa [12]; P. aeruginosa isolate 1530 (TOB-R, AMK-R, CIP-R), initial MIC testing): 32 µg/mL (≈ 68.4 µM)
- MIC (P. aeruginosa [12]; P. aeruginosa isolate 1553 (TOB-R, AMK-R, CIP-R), initial MIC testing): >256 µg/mL
- MIC (P. aeruginosa [12]; P. aeruginosa isolate 6322 (MEM-R, TOB-R, AMK-R, CIP-R, AZT-R), initial MIC testing): 128 µg/mL (≈ 274 µM)
- MIC (P. aeruginosa [12]; P. aeruginosa isolate 6977 (MEM-I, TOB-R, CIP-R, AZT-I), initial MIC testing): 128 µg/mL (≈ 274 µM)
- MIC (P. aeruginosa [12]; P. aeruginosa isolate 7745 (MEM-R, CIP-R, AZT-R), initial MIC testing): 0.5 µg/mL (≈ 1.07 µM)
- MIC (P. aeruginosa [12]; P. aeruginosa isolate 7754 (MEM-R, TOB-R, CIP-R, AZT-I), initial MIC testing): 32 µg/mL (≈ 68.4 µM)
- MIC (P. aeruginosa [12]; P. aeruginosa isolate 7762 (MEM-I, CIP-I), initial MIC testing): 1 µg/mL (≈ 2.14 µM)
- MIC (P. aeruginosa [12]; P. aeruginosa isolate 7871 (MEM-R, AZT-I), initial MIC testing): 0.5 µg/mL (≈ 1.07 µM)
- MIC (P. aeruginosa [12]; P. aeruginosa isolate 7874, initial MIC testing): 0.5 µg/mL (≈ 1.07 µM)
- MIC (P. aeruginosa [12]; P. aeruginosa isolate 7886 (MEM-R, CIP-R, AZT-R), initial MIC testing): 1 µg/mL (≈ 2.14 µM)
- MIC (P. aeruginosa [12]; P. aeruginosa isolate 8797 (MEM-R, TOB-R, AMK-R, CIP-R, AZT-R, COL-R), initial MIC testing): >256 µg/mL
- MIC (P. aeruginosa [12]; P. aeruginosa isolate 8798 (MEM-R, TOB-R, AMK-R, CIP-R, AZT-R, COL-R), initial MIC testing): 32 µg/mL (≈ 68.4 µM)
- MIC (P. aeruginosa [12]; P. aeruginosa isolate 9108 (CIP-R, AZT-I), initial MIC testing): 0.5 µg/mL (≈ 1.07 µM)
- MIC ([13]; B. cenocepacia isolate 0548 (CIP-R)): 64 µg/mL (≈ 137 µM)
- MIC ([13]; B. cenocepacia isolate 0813 (CPI-I)): 256 µg/mL (≈ 548 µM)
- MIC ([13]; B. cepacia isolate 0546): 64 µg/mL (≈ 137 µM)
- MIC ([13]; B. cepacia isolate 1793): 64 µg/mL (≈ 137 µM)
- MIC ([13]; B. cepacia isolate 9040): 8 µg/mL (≈ 17.1 µM)
- MIC ([13]; B. multivorans isolate 1791): 64 µg/mL (≈ 137 µM)
- MIC ([13]; B. multivorans isolate 5665 (CIP-I)): 64 µg/mL (≈ 137 µM)
- MIC ([13]; B. multivorans isolate 8952 (CIP-I)): 16 µg/mL (≈ 34.2 µM)

— patent US12186283B2, “Bismuth-thiol compositions and methods of use” (Microbion Corporation, priority 2018, dated 2025)
